According to patent publication US11844754B2, “Methods for treatment of Parkinson's disease” (NeuroDerm, Ltd., priority 2020, dated 2023):
Like-named read-outs stand apart in the source and are kept apart here.

Columns and labels:
[1] = Plasma carbidopa Cmax after SC administration of several carbidopa doses, clinical trial ND0612-005a and ND0612-005b (Example 2b); format: in vivo, subjects (human); details: SC over 24 hours; 60 mg/ml levodopa with 7.5, 6 or 4 mg/ml carbidopa; 17.9, 26.9, 33.6 mg/24 h carbidopa
Procedure: In a separate clinical trial (ND0612-005a and ND0612-005b, open label design studies), the plasma carbidopa levels were tested in view of the subcutaneous administration of several carbidopa doses. Three formulations, comprising 60 mg/ml levodopa and (a) 7.5 mg/ml; (b) 6 mg/ml; or 4 mg/ml of carbidopa, were administered to three groups of subjects over the course of 24 hours, providing a total of 17.9 mg/24 h carbidopa to each subject in the first group, 26.9 mg/24 h carbidopa to each subject in the second group and 33.6 mg/24 h carbidopa to each subject in the third group.

[2] = Plasma exposure of LD and CD after SC infusion, oral IR tablet, and SC + oral coadministration (crossover, Example 1); format: in vivo, healthy subjects (human); details: for 1. Treatment A AUC (0-8) × 0.853* / AUC(0-t): human; for 1. Treatment A AUC (0-8) × 0.853*: sc
Excerpt: A test was run in order to assess the plasma exposure of levodopa (LD) following the coadministration of LD and carbidopa (CD) in both subcutaneous (SC) and oral administrations. Accordingly, results obtained from a combined SC+oral administration were compared to results obtained from SC administration alone and from oral administration alone. An additive plasma exposure and PK profile was expected, i.e., it was expected that the SC+oral coadministration would provide results equal to the additive results of the SC and oral administrations, when each was administered separately.
16 healthy subjects (18-50 years) were treated in a crossover manner, i.e., sequentially, with a washout period of 6 days between the following two treatments:
Treatment A: A total dose of 180/22.5 mg LD/CD (formulation A) was administered by SC infusion over the course of 8 hours, at a steady infusion rate.
Treatment B: An immediate release (IR) tablet of 100/25 mg LD/CD was administered orally at time 0 h.
Following a 32 hour washout period, the same 16 healthy subjects were administered with LC/CD both orally and subcutaneously according to the following treatment:
Treatment C: A dose of 153.6/19.2 LD/CD (formulation A) was administered by SC infusion over the course of 8 hours, at a steady infusion rate, combined with a single co-administration of an oral IR LD/CD 100/25 mg tablet, 4 hours after the initiation of the infusion. Total LD/CD dose: 253.6/44.2 mg.
Blood samples were collected at the following time points:
Treatment A: 0 (prior to treatment initiation), 0.5 h, 1 h, 2 h, 3 h, 4 h, 5 h, 5.5 h, 6 h, 7 h, 8 h (prior to the end of the infusion).
Treatment B: 0 (prior to treatment initiation), 0.5 h, 1 h, 2 h, 3 h, 4 h.
The normalized AUC0-8 of LD and CD of Treatment C, resulting from the combined SC and oral treatment, as described above, was calculated and compared to the sum of the normalized LD and CD AUCs obtained from Treatment A (AUC0-8 resulting from 8 h SC infusion) and Treatment B (AUC0-4 resulting from one IR oral tablet).

[3] = Dose proportionality of SC LD/CD, clinical trial ND0612-001 (Example 2a); format: in vivo, healthy male subjects (human); details: 24 hour continuous SC infusion of LD (6% w/w)/CD (1.4% w/w) at 80, 120, 160, 200, 240 μl/h
Procedure: Subjects were administered with a composition comprising LD (6% w/w)/CD (1.4% w/w) by way of a 24 hour continuous infusion at varying infusion rates: • Group 1: 80 μl/h • Group 2: 120 μl/h • Group 3: 160 μl/h • Group 4: 200 μl/h • Group 5: 240 μl/h Several PK parameters were derived for both LD and CD in the dose proportionality assessment, including AUC (hr*ng/mL), Cmax (ng/mL), C15 (ng/mL), and C24 (ng/mL).

in vivo = details: for AUC: female, pig, in vivo, sc, 600 mg, SC treatment AUC (G1) Actual
Procedure: The objective of this study was to determine the pharmacokinetics (PK) of levodopa (LD) in domestic pigs following continuous subcutaneous (SC) infusion of a levodopa prodrug, exemplified using LD-Tyr, administered concomitantly with oral Levodopa.
Table 3 provides the LD-Tyr formulation tested in this study: […]
The study consisted of 3 dosing sessions in which 5 female pigs (Swine/Landrace×large White, ˜40-50 kg each) were treated with the LD-Tyr solution of Table 3 and/or Sinemet IR oral tablets (CD/LD 25/100 mg tablet) in a cross-over design with up to 4-day washout period between dosing sessions, as detailed in the following tables:
As presented in Tables 4 and 5 above, the study included the following three test groups: • G1—received only SC LD-Tyr (600 mg total daily dose); • G2—received only oral LD (300 mg total daily dose); and • G3—received both SC LD-Tyr (600 mg total daily dose) and oral LD (200 mg total daily dose). Pharmacokinetics Blood Collection
Blood samples for the determination of LD-Tyr (in groups 1 and 3), as well as LD and CD plasma levels (in all groups) were collected from the pigs at the following timepoints: • 0 (pre-dose), 30 min, 1 h, 2 h, 3 h, 4 h, 4.5 h, 5 h, 6 h, 7 h, 8 h, 8.5 h, 9 h, 10 h, 11 h, 13 h, 15 h 18 h following treatment initiation. In case of pump occlusion (groups 1 and 3) resulting in infusion cessation, no further blood samples will be collected. Tablets were administrated before blood collection (time 0, 4 and 8 h). Bioanalysis
Plasma samples were analyzed for concentration of LD-Tyr (groups 1 and 3), as well as LD and CD (for all groups) using a qualified LC-MS/MS analytical method.
PK parameters (at least Cmax, tmax, t1/2, AUC) for LD-Tyr, LD and CD were calculated by noncompartmental methods using appropriate software (e.g. Phoenix® WinNonlin®). Individual and mean was calculated for quantitative parameters.
The LD exposure obtained from the SC infusion is considered to be the baseline.

For `C[C@@](Cc1ccc(O)c(O)c1)(NN)C(=O)O` [CD, carbidopa], which “dose proportionality of carbidopa Cmax” value [1] is on record?
Its value is “clear dose proportionality”.

What about the “1. Treatment A AUC (0-8) × 0.853*” value ([2]; in vivo) of the same molecule?
The value was 900.

What about the AUC(0-t) ([2]; in vivo, plasma CD, formulation A 153.6/19.2 LD/CD SC infusion over 8 h + oral IR LD/CD 100/25 mg tablet at 4 h, individual subjects, read-out: 4. Treatment C AUC (0-8) [Observed]) of the same molecule?
Its AUC(0-t) is 1050 ng·h/mL.

And the AUC(0-t) ([2]; in vivo, plasma CD, formulation A 180/22.5 mg LD/CD SC infusion over 8 h, AUC multiplied by 0.853, individual subjects, read-out: 1. Treatment A AUC (0-8) × 0.853*)?
Its AUC(0-t) is 942 ng·h/mL.

And the AUC(0-t) ([2]; in vivo, plasma CD, oral IR tablet 100/25 mg LD/CD at 0 h, individual subjects, read-out: 2. Treatment B AUC (0-4))?
The AUC(0-t) was 322 ng·h/mL.

And the “Observed (C) vs. Additive Ratio” value ([2]; in vivo)?
Its value is “lower than expected”.

What about the “dose proportionality of PK parameters (AUC, Cmax, C15, C24)” value [3] of the same molecule?
Its value is “demonstrated dose proportionality”.

With `N[C@@H](Cc1ccc(O)c(O)c1)C(=O)O` [LD, L-3,4-dihydroxyphenylalanine] as the molecule, how does the “1. Treatment A AUC (0-8) × 0.853*” value ([2]; in vivo) read?
The value was 2412.

And the AUC(0-t) ([2]; in vivo, plasma LD, formulation A 153.6/19.2 LD/CD SC infusion over 8 h + oral IR LD/CD 100/25 mg tablet at 4 h, individual subjects, read-out: 4. Treatment C AUC (0-8) [Observed])?
The AUC(0-t) was 4770 ng·h/mL.

And the AUC(0-t) ([2]; in vivo, plasma LD, formulation A 180/22.5 mg LD/CD SC infusion over 8 h, AUC multiplied by 0.853 to equal SC dose of Treatment C, individual subjects, read-out: 1. Treatment A AUC (0-8) × 0.853*)?
Its AUC(0-t) is 2310 ng·h/mL.

What about the AUC(0-t) ([2]; in vivo, plasma LD, oral IR tablet 100/25 mg LD/CD at 0 h, individual subjects, read-out: 2. Treatment B AUC (0-4)) of the same molecule?
Its AUC(0-t) is 1420 ng·h/mL.

And the AUC(0-t) ([2]; plasma LD, formulation A 180/22.5 mg LD/CD SC infusion over 8 h, AUC multiplied by 0.853 to equal SC dose of Treatment C, individual subjects, read-out: 1. Treatment A AUC (0-8) × 0.853*)?
The AUC(0-t) was 3090 ng·h/mL.

And the “Observed (C) vs. Additive Ratio” value ([2]; in vivo)?
Its value is “higher than expected”.

And the “3. Combined 1 + 2 [Estimated]” value ([2]; plasma LD, sum of normalized Treatment A and Treatment B AUCs, individual subjects)?
The value was 3087.

What about the AUC (in vivo; Landrace x large White) of the same molecule?
The AUC was 17600 ng·h/mL.

And the AUC (in vivo; plasma LD AUC, pigs, SC LD-Tyr/CD 600/26 mg over 8 hrs only, individual animals)?
The AUC was 18000 ng·h/mL.

What about the “increase of LD plasma exposure by oral add-ons on top of SC administration, versus predicted (average)” value (in vivo; pigs, SC LD-Tyr/CD + oral LD/CD) of the same molecule?
Its value is “over 50%”.

And the “dose proportionality of PK parameters (AUC, Cmax, C15, C24)” value [3]?
The value was “demonstrated dose proportionality”.
